20 compounds from ChEMBL document CHEMBL3217598, “Synthesis, modeling, and crystallographic study of 3,4-disubstituted-1,2,5-oxadiazoles and evaluation of their ability to decrease STAT3 activity” (Medchemcomm, 2010) can be followed below.

In general, inhibition refers to the drop in the measured response relative to a control, in per cent.

Activity calls are given as the source filed them. The calls are words filed in the database; no cut-off is given here.

Test [1] concerns the target Signal transducer and activator of transcription 3 (Homo sapiens) (UniProt P40763). Nature of the test: Inhibition of STAT3 in human HCT 116 cells co-transfected with pSTAT3-TA-Luc at 2 uM after 24 hrs by dual luciferase assay. The test is classed as cell-based.
For test [2], the system named is MDA-MB-231. Put plainly: Growth inhibition of human MDA-MB-231 cells assessed as cell proliferation at highest concentration after 24 hrs by WST-1 assay. It is filed as functional. On the technique in general: Tetrazolium assays rely on reduction of a dye to a coloured formazan, in cell work by metabolically active cells.
Test [3] deals with HCT-116. Put plainly: Growth inhibition of human HCT116 cells assessed as cell proliferation at highest concentration after 24 hrs by WST-1 assay. It is filed as functional.
Test [4] deals with MDA-MB-468. Nature of the test: Growth inhibition of human MDA-MB-468 cells assessed as cell proliferation at highest concentration after 24 hrs by WST-1 assay. The test is classed as functional.
Test [5] deals with SW-620. Put plainly: Growth inhibition of human SW620 cells assessed as cell proliferation at highest concentration after 24 hrs by WST-1 assay. The test is classed as functional.
The test system of test [6] is SW-620. Nature of the test: Inhibition of human SW620 cell proliferation at highest concentration after 48 hrs by WST-1 assay. The test is classed as functional, cell-based.
Test [7] concerns MDA-MB-468. Nature of the test: Inhibition of human MDA-MB-468 cell proliferation at highest concentration after 48 hrs by WST-1 assay. The test is classed as functional, cell-based.
The test system of test [8] is HCT-116. Put plainly: Induction of apoptosis in human HCT116 cells assessed as increase in cleaved PARP level at 10 uM by western blot analysis. The test is classed as functional, cell-based.
For test [9], the system named is HCT-116. Put plainly: Induction of apoptosis in human HCT116 cells assessed as rounded and floated morphology at 2.5 to 50 uM. It is filed as functional, cell-based.
The target in test [10] is Signal transducer and activator of transcription 3 (Homo sapiens) (UniProt P40763). Nature of the test: Inhibition of STAT3 in human HCT 116 cells co-transfected with pSTAT3-TA-Luc after 24 hrs by dual luciferase assay. It is filed as cell-based.
Sequence of Signal transducer and activator of transcription 3 (Homo sapiens) (P40763 whole entry): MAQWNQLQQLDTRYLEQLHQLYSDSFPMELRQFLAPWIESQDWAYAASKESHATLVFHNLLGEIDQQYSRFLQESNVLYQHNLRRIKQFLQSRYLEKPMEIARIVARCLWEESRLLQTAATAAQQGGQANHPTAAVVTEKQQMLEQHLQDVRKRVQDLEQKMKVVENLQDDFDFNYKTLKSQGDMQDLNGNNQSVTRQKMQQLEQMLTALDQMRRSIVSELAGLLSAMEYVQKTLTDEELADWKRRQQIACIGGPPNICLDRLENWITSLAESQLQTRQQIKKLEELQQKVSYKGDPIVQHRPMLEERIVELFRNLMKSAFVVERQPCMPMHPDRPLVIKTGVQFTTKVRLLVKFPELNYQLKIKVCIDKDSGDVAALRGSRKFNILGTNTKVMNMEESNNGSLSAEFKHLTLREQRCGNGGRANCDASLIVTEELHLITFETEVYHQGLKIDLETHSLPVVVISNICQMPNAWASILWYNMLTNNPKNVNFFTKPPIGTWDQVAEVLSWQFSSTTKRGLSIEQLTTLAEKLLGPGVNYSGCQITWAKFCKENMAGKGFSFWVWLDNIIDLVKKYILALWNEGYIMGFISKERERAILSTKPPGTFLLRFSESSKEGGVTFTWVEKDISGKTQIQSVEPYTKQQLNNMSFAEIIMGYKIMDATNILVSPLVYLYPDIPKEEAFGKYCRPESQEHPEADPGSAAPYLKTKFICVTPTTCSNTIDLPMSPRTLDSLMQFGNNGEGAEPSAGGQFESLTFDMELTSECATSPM
Test [11] concerns HCT-116. Put plainly: Induction of apoptosis in human HCT116 cells assessed as increase in cleaved caspase-3 level at 10 uM by western blot analysis. The test is classed as functional, cell-based.
For test [12], the system named is MDA-MB-231. Put plainly: Inhibition of human MDA-MB-231 cell proliferation at highest concentration after 48 hrs by WST-1 assay. It is filed as functional, cell-based.
Test [13] concerns HCT-116. Nature of the test: Inhibition of human HCT116 cell proliferation at highest concentration after 48 hrs by WST-1 assay. The test is classed as functional, cell-based.

Consider `Cc1nonc1NC(=O)Cc1ccccc1`, for which the inhibition in test [1] stood at 6%.

For `CN(C(=O)Nc1nonc1-c1ccc(OCc2ccccc2)cc1)c1ccc(C(F)(F)F)cc1`, in [1], the inhibition was determined as 21%.

Regarding `CN(C(=O)N(C)c1nonc1-c1ccc(Cl)cc1)c1ccc(C(F)(F)F)cc1`, the inhibition in test [1] was 8%.

Take `CN(C(=O)Nc1nonc1-c1ccc(O)cc1)c1ccc(C(F)(F)F)cc1`: the inhibition in [1] was 51%.

As to `Cc1nonc1NS(=O)(=O)Cc1ccccc1`, in test [1], the inhibition was determined as 6%.

For the compound `COC(=O)c1nonc1NC(=O)Cc1ccccc1`, the inhibition in [1] turned out to be 9%.

On to `O=S(=O)(Nc1nonc1-c1ccc(Cl)cc1)c1ccc(C(F)(F)F)cc1`, for which, in [1], the inhibition was -3%.

Turning to `COC(=O)c1nonc1NS(=O)(=O)Cc1ccccc1`, the inhibition in [1] stood at 7%.

On to `O=S(=O)(Cc1ccccc1)Nc1nonc1CO`, for which the inhibition in test [1] is -2%.

Consider `O=C(Nc1ccc(C(F)(F)F)cc1)Nc1nonc1-c1ccc(O)cc1`, for which the inhibition in test [1] was found to be 24%.

As to `CN(C(=O)Nc1nonc1-c1ccc(Cl)cc1)c1ccccc1`, the inhibition in test [1] turned out to be 25%.

On to `CC(=O)Oc1ccc(-c2nonc2N(C)C(=O)N(C)c2ccc(C(F)(F)F)cc2)cc1`, for which the inhibition in [1] was 26%.

Turning to `O=C(Cc1ccccc1)Nc1nonc1CO`, the inhibition in [1] came to 14%.

In the case of `O=C(Nc1ccccc1)Nc1nonc1-c1ccccc1`, the inhibition in [1] worked out at 36%.

As for `Cc1nonc1NC(=O)Nc1ccccc1`, the inhibition in test [1] worked out at 2%.

With `O=C(Cc1ccccc1)Nc1nonc1-c1ccccc1`, in [1], the inhibition was 11%.

Consider `CC(=O)Oc1ccc(-c2nonc2NC(=O)N(C)c2ccc(C(F)(F)F)cc2)cc1`, for which the inhibition in test [1] was 32%.

`O=C(NCc1ccccc1)Nc1nonc1-c1ccccc1`: the inhibition in [1] came out at 11%.

Take `O=C(Nc1nonc1-c1ccc(Cl)cc1)c1ccc(C(F)(F)F)cc1`: the inhibition in [1] is -7%.

For `O=C(Nc1ccc(C(F)(F)F)cc1)Nc1nonc1-c1ccc(Cl)cc1`, the inhibition in test [1] is 45%; in test [10], “Dose-dependent effect”. Also, the “growth inhibition (GI)” value in the test with MDA-MB-231 [2], in the test on HCT-116 [3], in the test with MDA-MB-468 [4] and in the test with SW-620 [5] was 50% in each case. Further, the inhibition result in the test on SW-620 [6], in the test on MDA-MB-468 [7], in the test with MDA-MB-231 [12] and in the test with HCT-116 [13] was “Active” in each case. The outcome in the test on HCT-116 [8], in the test on HCT-116 [9] and with HCT-116 [11] was Active.
